The text below walks through data of US8901111B2, “Aryl-substituted heterocyclic urea modulators of fatty acid amide hydrolase” (Janssen Pharmaceutica NV, priority 2009, dated 2014).

The target of one assay is T1, rat FAAH (Rattus norvegicus, UniProt P97612).
T1 construct: expressed in transfected cells; crude homogenate
T1 sequence (P97612 1-579): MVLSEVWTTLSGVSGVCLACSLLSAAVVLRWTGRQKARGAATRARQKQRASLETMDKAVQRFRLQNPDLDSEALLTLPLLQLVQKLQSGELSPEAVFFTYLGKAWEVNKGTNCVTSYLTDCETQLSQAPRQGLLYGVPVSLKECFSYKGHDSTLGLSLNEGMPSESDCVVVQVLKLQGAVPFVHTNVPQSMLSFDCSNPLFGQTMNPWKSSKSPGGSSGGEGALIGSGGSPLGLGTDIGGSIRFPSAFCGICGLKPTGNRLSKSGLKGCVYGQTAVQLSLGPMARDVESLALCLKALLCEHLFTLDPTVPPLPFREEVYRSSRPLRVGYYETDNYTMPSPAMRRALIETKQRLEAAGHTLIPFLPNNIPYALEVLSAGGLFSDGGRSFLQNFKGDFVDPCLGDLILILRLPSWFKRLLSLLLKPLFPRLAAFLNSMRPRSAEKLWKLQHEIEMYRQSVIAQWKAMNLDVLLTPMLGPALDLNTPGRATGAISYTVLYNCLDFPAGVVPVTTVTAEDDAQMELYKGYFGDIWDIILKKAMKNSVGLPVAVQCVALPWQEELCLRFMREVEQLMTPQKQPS
Briefly: Assay Method 2: FAAH assay, 3H-anandamide hydrolysis in homogenate of cells transfected with rat FAAH. In kind it is biochemical. The note with it: cell homogenate, 3H-AEA 80 nM, 1 h at rt, average of results. The method, then: A. Transfection of Cells with Rat FAAH
(§1) A 10-cm tissue culture dish with a confluent monolayer of SK-N-MC cells was split 2 days (d) prior to transfection. Using sterile technique, the media was removed and the cells were detached from the dish by the addition of trypsin. One fifth of the cells were then placed onto a new 10-cm dish. Cells were grown in a 37° C. incubator with 5% CO2 in Minimal Essential Media Eagle with 10% Fetal Bovine Serum. After 2 d, cells were approximately 80% confluent. These cells were removed from the dish with trypsin and pelleted in a clinical centrifuge. The pellet was re-suspended in 400 μL complete media and transferred to an electroporation cuvette with a 0.4 cm gap between the electrodes. Supercoiled rat FAAH cDNA (1 μg) was added to the cells and mixed. The voltage for the electroporation was set at 0.25 kV, and the capacitance was set at 960 μF. After electroporation, the cells were diluted into complete media (10 mL) and plated onto four 10-cm dishes. Because of the variability in the efficiency of electroporation, four different concentrations of cells were plated. The ratios used were 1:20, 1:10, and 1:5, with the remainder of the cells being added to the fourth dish. The cells were allowed to recover for 24 h before adding the selection media (complete media with 600 μg/mL G418). After 10 d, dishes were analyzed for surviving colonies of cells. Dishes with well-isolated colonies were used. Cells from individual colonies were isolated and tested.
(§2) T84 frozen cell pellets or transfected SK-N-MC cells (contents of 1×15 cm culture dishes) were homogenized in 50 mL of FAAH assay buffer (125 mM Tris, 1 mM EDTA, 0.2% Glycerol, 0.02% Triton X-100, 0.4 mM Hepes, pH 9). The assay mixture consisted of 50 μL of the cell homogenate, 10 μL of the test compound, and 40 μL of anandamide [1-^3H-ethanolamine] (^3H-AEA, Perkin-Elmer, 10.3 Ci/mmol), which was added last, for a final tracer concentration of 80 nM. The reaction mixture was incubated at rt for 1 h. During the incubation, 96-well Multiscreen filter plates (catalog number MAFCNOB50; Millipore, Bedford, Mass., USA) were loaded with 25 μL of activated charcoal (Multiscreen column loader, catalog number MACL09625, Millipore) and washed once with 100 μL of MeOH. Also during the incubation, 96-well DYNEX MicroLite plates (catalog number NL510410) were loaded with 100 μL of MicroScint40 (catalog number 6013641, Packard Bioscience, Meriden, Conn., USA). After the 1 h incubation, 60 μL of the reaction mixture were transferred to the charcoal plates, which were then assembled on top of the DYNEX plates using Centrifuge Alignment Frames (catalog number MACF09604, Millipore). The unbound labeled ethanolamine was centrifuged through to the bottom plate (5 min at 2000 rpm), which was preloaded with the scintillant, as described above. The plates were sealed and left at rt for 1 h before counting on a Hewlett Packard TopCount.
(§3) Results for compounds tested in these assays are summarized in Table 1, as an average of results obtained. Compounds were tested in the free base or trifluoroacetic acid salt form. Compounds tested in the trifluoroacetic acid salt form are indicated as such by a “*” designation after the example number. Where activity is shown as greater than (>) a particular value, the value is the solubility limit of the compound in the assay medium or the highest concentration tested in the assay.

The target in another assay is T2, FAAH (Homo sapiens, UniProt O00519).
T2 sequence (O00519 1-579): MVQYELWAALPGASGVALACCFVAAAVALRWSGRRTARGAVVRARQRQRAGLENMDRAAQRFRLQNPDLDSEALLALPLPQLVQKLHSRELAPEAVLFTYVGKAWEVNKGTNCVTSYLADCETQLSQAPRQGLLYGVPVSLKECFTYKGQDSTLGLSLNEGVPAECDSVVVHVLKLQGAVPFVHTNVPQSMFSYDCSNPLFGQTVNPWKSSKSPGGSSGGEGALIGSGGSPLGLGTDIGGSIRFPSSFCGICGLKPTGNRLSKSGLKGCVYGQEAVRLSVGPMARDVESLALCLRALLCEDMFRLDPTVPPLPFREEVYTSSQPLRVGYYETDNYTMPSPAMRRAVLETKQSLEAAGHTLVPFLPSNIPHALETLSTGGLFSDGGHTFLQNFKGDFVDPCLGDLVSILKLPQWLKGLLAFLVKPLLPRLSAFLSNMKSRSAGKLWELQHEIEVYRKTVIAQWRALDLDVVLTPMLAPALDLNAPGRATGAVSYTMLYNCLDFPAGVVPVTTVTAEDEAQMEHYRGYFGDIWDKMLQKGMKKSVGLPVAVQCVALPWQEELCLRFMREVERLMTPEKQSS
Briefly: Assay Method 1: FAAH assay, 3H-anandamide hydrolysis in homogenate of cells transfected with human FAAH. Type of assay: biochemical. The note with it: cell homogenate, 3H-AEA 80 nM, 1 h at rt, average of results. More on the design: expressed in transfected cells; crude homogenate (T84 cell pellets named as alternative). On the procedure:
A. Transfection of Cells with Human FAAH
as §1, with “Supercoiled human” for “Supercoiled rat”, “[…]” for “960 μF.”
as §2, §3

Structures can show the parent of a compound that is named as a salt.

As for `O=C(Nc1cccnc1)N1CC(COc2ccc3ncccc3c2)C1` [Example 15, 3-(Quinolin-6-yloxymethyl)-azetidine-1-carboxylic acid pyridin-3-ylamide, trifluoroacetate salt], the IC50 on rat FAAH and against FAAH was over 10 µM throughout.
Turning to `O=C(Nc1cccnc1)N1CC(COc2ccc(Oc3ccccc3)cc2)C1` [Example 16, 3-(4-Phenoxy-phenoxymethyl)-azetidine-1-carboxylic acid pyridin-3-ylamide], the IC50 against rat FAAH and at FAAH was over 10 µM throughout.
In the case of `O=C(Nc1cccnc1)N1CC(COc2cccc(Oc3ccccc3)c2)C1` [Example 17, 3-(3-Phenoxy-phenoxymethyl)-azetidine-1-carboxylic acid pyridin-3-ylamide], the IC50 on rat FAAH came to 0.34 µM; against FAAH it was 0.17 µM.
As to `O=C(Nc1cccnc1)N1CC(COc2ccc(-c3ccccc3)cc2)C1` [Example 18, 3-(Biphenyl-4-yloxymethyl)-azetidine-1-carboxylic acid pyridin-3-ylamide], the IC50 on rat FAAH and against FAAH was over 10 µM in each case.
`O=C(Nc1cccnc1)N1CC(COc2ccc(OCc3ccccc3)cc2)C1` [Example 19, 3-(4-Benzyloxy-phenoxymethyl)-azetidine-1-carboxylic acid pyridin-3-ylamide]: the IC50 against rat FAAH and against FAAH was over 10 µM in each case.
As for `O=C(Nc1cccnc1)N1CC(COc2ccc3ccccc3c2)C1` [Example 20, 3-(Naphthalen-2-yloxymethyl)-azetidine-1-carboxylic acid pyridin-3-ylamide], the values for the IC50 against rat FAAH and against FAAH were 1.6 µM and 1 µM, respectively.
For `O=C(Nc1cccnc1)N1CC(COc2ccc(Cl)c(Cl)c2)C1` [Example 21, 3-(3,4-Dichloro-phenoxymethyl)-azetidine-1-carboxylic acid pyridin-3-ylamide], the IC50 against rat FAAH came out at 0.53 µM; against FAAH it was 1 µM.
As to `O=C(Nc1cccnc1)N1CC(COc2ccc3cccc(Cl)c3n2)C1` [Example 22, 3-(8-Chloro-quinolin-2-yloxymethyl)-azetidine-1-carboxylic acid pyridin-3-ylamide], the IC50 against rat FAAH worked out at 0.5 µM; at FAAH, 1.3 µM.
For `O=C(Nc1cccnc1)N1CC(COc2cccc(OCc3ccccc3)c2)C1` [Example 23, 3-(3-Benzyloxy-phenoxymethyl)-azetidine-1-carboxylic acid pyridin-3-ylamide], in that order: 0.94 µM and 0.3 µM.
Consider `CS(=O)(=O)c1ccc(Oc2cccc(OCC3CN(C(=O)Nc4cccnc4)C3)c2)cc1` [Example 24, 3-[3-(4-Methanesulfonyl-phenoxy)-phenoxymethyl]-azetidine-1-carboxylic acid pyridin-3-ylamide], for which the IC50 was 0.38 µM against rat FAAH and 0.058 µM against FAAH.
For the compound `O=C(Nc1cccnc1)N1CC(COc2cccc(Oc3ccc(OC(F)(F)F)cc3)c2)C1` [Example 25, 3-[3-(4-Trifluoromethoxy-phenoxy)-phenoxymethyl]-azetidine-1-carboxylic acid pyridin-3-ylamide], the IC50 amounted to 0.23 µM against rat FAAH and 0.05 µM at FAAH.
Regarding `O=C(Nc1cccnc1)N1CC(COc2cccc(Oc3ccc(Cl)cc3)c2)C1` [Example 26, 3-[3-(4-Chloro-phenoxy)-phenoxymethyl]-azetidine-1-carboxylic acid pyridin-3-ylamide], the IC50 was 0.2 µM on rat FAAH and 0.12 µM on FAAH.
Consider `CS(=O)(=O)c1ccc(Oc2cccc(OCCC3CN(C(=O)Nc4cccnc4)C3)c2)cc1` [Example 27, 3-{2-[3-(4-Methanesulfonyl-phenoxy)-phenoxy]-ethyl}-azetidine-1-carboxylic acid pyridin-3-ylamide], for which the IC50 was determined as 0.48 µM at rat FAAH and 0.015 µM against FAAH.
For `O=C(Nc1cnccc1Cl)N1CC(CCOc2cccc(Oc3ccc(Cl)cc3)c2)C1` [Example 28, 3-{2-[3-(4-Chloro-phenoxy)-phenoxy]-ethyl}-azetidine-1-carboxylic acid (4-chloro-pyridin-3-yl)-amide], in that order: 0.001 µM and 0.001 µM.
Consider `O=C(Nc1cccnc1)N1CC(CCOc2cccc(Oc3ccc(OC(F)(F)F)cc3)c2)C1` [Example 29, 3-{2-[3-(4-Trifluoromethoxy-phenoxy)-phenoxy]-ethyl}-azetidine-1-carboxylic acid pyridin-3-ylamide], for which the IC50 on rat FAAH stood at 0.4 µM; against FAAH, 0.053 µM.
Regarding `O=C(Nc1cccnc1)N1CC(CCOc2cccc(OC(F)(F)F)c2)C1` [Example 31, 3-[2-(3-Trifluoromethoxy-phenoxy)-ethyl]-azetidine-1-carboxylic acid pyridin-3-ylamide], the results for the IC50 against rat FAAH and on FAAH were 0.9 µM and 3 µM, respectively.
Take `O=C(Nc1cccnc1)N1CC(CCOc2cccc(Oc3ccccc3)c2)C1` [Example 32, 3-[2-(3-Phenoxy-phenoxy)-ethyl]-azetidine-1-carboxylic acid pyridin-3-ylamide]: the results for the IC50 at rat FAAH and against FAAH were 0.43 µM and 0.36 µM, respectively.
